Results reported in ChEMBL document CHEMBL1129707, “Identification and biological activity of novel peptidomimetic gastrin/CCK-B receptor agonists” (Bioorg Med Chem Lett, 1996).

Tests used:
[1] = molecular target: T1, Gastrin/cholecystokinin type B receptor (Rattus norvegicus, UniProt P30553); assay: Tested for displacement of [125I]-CCK-8 from Gastrin/Cholecystokinin type B receptor in rat brain.; assay type: tissue-based
T1 sequence (P30553 whole entry): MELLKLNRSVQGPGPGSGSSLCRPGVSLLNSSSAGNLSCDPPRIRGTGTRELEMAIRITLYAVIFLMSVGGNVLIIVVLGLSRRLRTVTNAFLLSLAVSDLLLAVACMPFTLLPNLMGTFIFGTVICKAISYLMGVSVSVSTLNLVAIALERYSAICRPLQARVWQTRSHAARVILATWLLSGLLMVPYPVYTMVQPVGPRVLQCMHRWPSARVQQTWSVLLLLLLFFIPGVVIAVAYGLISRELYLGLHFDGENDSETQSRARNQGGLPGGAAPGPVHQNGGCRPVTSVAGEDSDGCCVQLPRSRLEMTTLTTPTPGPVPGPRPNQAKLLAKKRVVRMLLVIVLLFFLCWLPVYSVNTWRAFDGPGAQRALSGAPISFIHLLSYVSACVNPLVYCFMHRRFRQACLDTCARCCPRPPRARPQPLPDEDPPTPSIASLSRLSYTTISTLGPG

[2] = molecular target: T2, Cholecystokinin receptor type A (Rattus norvegicus, UniProt P30551); assay: Tested for displacement of [3H]-L-364,718 from Cholecystokinin type A receptor in rat pancreas.
T2 sequence (P30551 whole entry): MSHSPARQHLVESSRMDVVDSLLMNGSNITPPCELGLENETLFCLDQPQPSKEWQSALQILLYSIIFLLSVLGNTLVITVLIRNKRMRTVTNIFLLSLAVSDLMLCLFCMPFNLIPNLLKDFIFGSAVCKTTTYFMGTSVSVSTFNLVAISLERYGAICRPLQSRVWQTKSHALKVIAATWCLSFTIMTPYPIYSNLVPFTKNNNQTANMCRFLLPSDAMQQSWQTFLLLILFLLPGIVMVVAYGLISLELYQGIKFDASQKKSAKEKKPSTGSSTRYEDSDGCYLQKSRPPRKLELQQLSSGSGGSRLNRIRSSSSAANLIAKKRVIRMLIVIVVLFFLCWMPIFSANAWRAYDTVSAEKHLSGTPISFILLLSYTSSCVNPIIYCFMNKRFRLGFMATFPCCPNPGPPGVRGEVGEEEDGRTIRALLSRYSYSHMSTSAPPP

Row | Structure (SMILES) | IC50 [1] [nM] | IC50 [2] [nM]
1 | CCCC[C@H](NC(=O)Cc1c[nH]c2ccccc12)C(=O)N(CCc1ccccc1)CC(=O)O | 165 | –
2 | CCCC[C@H](NC(=O)Cc1c[nH]c2ccccc12)C(=O)N(CCC1CCCCC1)CC(=O)N1CCCC1 | 146 | > 10000
3 | CCCC[C@H](NC(=O)Cc1c[nH]c2ccccc12)C(=O)N(CCc1ccccc1)CC(=O)N1CCCC1C(=O)O (stereo partly specified) | 300 | –
4 | CCCC[C@H](NC(=O)Cc1c[nH]c2ccccc12)C(=O)N(CCC1CCCCC1)CC(=O)O | 370 | > 10000
5 | CC(C)C[C@@H](C(=O)N[C@@H](CC(=O)O)C(=O)N[C@@H](Cc1ccccc1)C(N)=O)N1CC(=O)N[C@H](Cc2c[nH]c3ccccc23)C1=O | 37.7 | –
6 | CC(C)(C)OC(=O)N1c2ccccc2C[C@@H]1C(=O)N1[C@@H](C(=O)N2Cc3ccccc3C[C@@H]2C(=O)N2CCC[C@@H]2C(=O)O)CC[C@H]1c1ccccc1 | 36 | > 10000
7 | CC(C)(C)OC(=O)N1c2ccccc2C[C@@H]1C(=O)N1[C@@H](C(=O)N2CCc3ccccc3C2)CC[C@H]1c1ccccc1 | 52 | > 10000
8 | CC(C)(C)OC(=O)N1c2ccccc2C[C@@H]1C(=O)N1[C@@H](C(=O)N2Cc3ccccc3C[C@@H]2CC(=O)O)CC[C@H]1c1ccccc1 | 35 | > 10000
9 | CC(C)(C)OC(=O)N1c2ccccc2C[C@@H]1C(=O)N1[C@@H](C(=O)N2Cc3ccccc3C[C@@H]2C(N)=O)CC[C@H]1c1ccccc1 | 170 | > 10000
10 | CC(C)(C)OC(=O)N1c2ccccc2C[C@@H]1C(=O)N1[C@@H](C(=O)N2Cc3ccccc3C[C@@H]2C(=O)O)CC[C@H]1c1ccccc1 | 39 | > 10000

The next lines start with the values.

Row | IC50 [1] [nM] | IC50 [2] [nM] | Structure (SMILES)
11 | 30.2 | > 10000 | CCCC[C@H](NC(=O)Cc1c[nH]c2ccccc12)C(=O)N(CC(=O)N1CCC[C@H]1C(=O)O)CC1CCCCC1
12 | 0.94 | > 10000 | O=C(Cc1c[nH]c2ccccc12)N[C@@H](Cc1ccccc1)C(=O)N(CCC1CCCCC1)CC(=O)N1CCC[C@H]1C(=O)O
13 | 34 | – | CCCC[C@H](NC(=O)Cc1c[nH]c2ccccc12)C(=O)N(CCc1ccccc1)CC(=O)N1CCC[C@H]1C(=O)O
14 | 0.7 | – | CCC[C@@H]1CCN(C(=O)[C@@H]2Cc3c[nH]c4cccc(c34)CC(=O)N2)[C@@H]1C(=O)N[C@@H](CC(=O)O)C(=O)N[C@@H](Cc1ccccc1)C(N)=O
15 | 27 | > 10000 | CC(C)(C)OC(=O)N1c2ccccc2C[C@@H]1C(=O)N1[C@@H](C(=O)N2Cc3ccccc3C[C@@H]2C(=O)NCC(=O)O)CC[C@H]1c1ccccc1
16 | 2.3 | > 10000 | CCCC[C@H](NC(=O)Cc1c[nH]c2ccccc12)C(=O)N(CCC1CCCCC1)CC(=O)N1CCC[C@H]1C(=O)O
17 | 0.25 | > 10000 | CC(C)(C)OC(=O)N1c2ccccc2C[C@@H]1C(=O)N1[C@@H](C(=O)N2Cc3ccccc3C[C@@H]2C(=O)N2CCCC2C(=O)O)CC[C@H]1c1ccccc1 (stereo partly specified)
18 | 17 | > 10000 | O=C(Cc1c[nH]c2ccccc12)N[C@@H](CCc1ccccc1)C(=O)N(CCC1CCCCC1)CC(=O)N1CCC[C@H]1C(=O)O
